Laboratory results taken from PubChem BioAssay (NCI).
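Assay format: 96-well plates, 48-hour exposure. TGI is the concentration that stops growth completely.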

Tests used:
Experiment in all cases: growth of human tumour cells (NCI), 48 h
SF-268 CNS = test system: SF-268 CNS
COLO 205 colon = test system: COLO 205 colon
SK-MEL-5 melanoma = test system: SK-MEL-5 melanoma
NCI-H226 lung = test system: NCI-H226 lung
MOLT-4 leukemia = test system: MOLT-4 leukemia
K-562 leukemia = test system: K-562 leukemia
HCC-2998 colon = test system: HCC-2998 colon
CAKI-1 renal = test system: CAKI-1 renal
ACHN renal = test system: ACHN renal
M14 melanoma = test system: M14 melanoma
OVCAR-4 ovarian = test system: OVCAR-4 ovarian
NCI/ADR-RES ovarian = test system: NCI/ADR-RES ovarian
TK-10 renal = test system: TK-10 renal
SNB-19 CNS = test system: SNB-19 CNS
SF-539 CNS = test system: SF-539 CNS
SW-620 colon = test system: SW-620 colon
DU-145 prostate = test system: DU-145 prostate
HCT-15 colon = test system: HCT-15 colon
MDA-MB-231 breast = test system: MDA-MB-231 breast
IGROV1 ovarian = test system: IGROV1 ovarian
T-47D breast = test system: T-47D breast
MALME-3M melanoma = test system: MALME-3M melanoma
NCI-H460 lung = test system: NCI-H460 lung
NCI-H23 lung = test system: NCI-H23 lung
SK-MEL-2 melanoma = test system: SK-MEL-2 melanoma
SK-OV-3 ovarian = test system: SK-OV-3 ovarian
HOP-92 NSCLC = test system: HOP-92 NSCLC
U251 CNS = test system: U251 CNS
OVCAR-8 ovarian = test system: OVCAR-8 ovarian
SNB-75 CNS = test system: SNB-75 CNS
HT29 colon = test system: HT29 colon
MCF7 breast = test system: MCF7 breast
SK-MEL-28 melanoma = test system: SK-MEL-28 melanoma
OVCAR-3 ovarian = test system: OVCAR-3 ovarian
MDA-N = test system: MDA-N
KM12 colon = test system: KM12 colon
PC-3 prostate = test system: PC-3 prostate
LOX IMVI melanoma = test system: LOX IMVI melanoma
A498 renal = test system: A498 renal
UACC-62 melanoma = test system: UACC-62 melanoma
NCI-H522 lung = test system: NCI-H522 lung
SN12C renal = test system: SN12C renal
A549 NSCLC = test system: A549 NSCLC
RXF 393 renal = test system: RXF 393 renal
RPMI-8226 leukemia = test system: RPMI-8226 leukemia
CCRF-CEM leukemia = test system: CCRF-CEM leukemia
MDA-MB-435 = test system: MDA-MB-435
HCT-116 colon = test system: HCT-116 colon
HOP-62 NSCLC = test system: HOP-62 NSCLC
SR leukemia = test system: SR leukemia
OVCAR-5 ovarian = test system: OVCAR-5 ovarian
SF-295 CNS = test system: SF-295 CNS
UO-31 renal = test system: UO-31 renal
786-0 renal = test system: 786-0 renal
UACC-257 melanoma = test system: UACC-257 melanoma
EKVX NSCLC = test system: EKVX NSCLC
BT-549 breast = test system: BT-549 breast
HS 578T breast = test system: HS 578T breast
HL-60(TB) leukemia = test system: HL-60(TB) leukemia

Q: `C[n+]1cccc(/C=C/c2ccc3cccc(O)c3n2)c1` was tested. Which TGI (SF-268 CNS) did it give?
A: > 100 µM

Q: What about the TGI (COLO 205 colon) of the same molecule?
A: > 100 µM

Q: And the TGI (SK-MEL-5 melanoma)?
A: > 100 µM

Q: And the TGI (NCI-H226 lung)?
A: > 100 µM

Q: What about the TGI (MOLT-4 leukemia) of the same molecule?
A: > 100 µM

Q: What about the TGI (K-562 leukemia) of the same molecule?
A: > 100 µM

Q: What about the TGI (HCC-2998 colon) of the same molecule?
A: > 100 µM

Q: And the TGI (CAKI-1 renal)?
A: > 100 µM

Q: And the TGI (ACHN renal)?
A: > 100 µM

Q: And the TGI (M14 melanoma)?
A: > 100 µM

Q: And the TGI (OVCAR-4 ovarian)?
A: > 100 µM

Q: And the TGI (NCI/ADR-RES ovarian)?
A: > 100 µM

Q: What about the TGI (TK-10 renal) of the same molecule?
A: > 100 µM

Q: What about the TGI (SNB-19 CNS) of the same molecule?
A: > 100 µM

Q: What about the TGI (SF-539 CNS) of the same molecule?
A: > 100 µM

Q: What about the TGI (SW-620 colon) of the same molecule?
A: > 100 µM

Q: What about the TGI (DU-145 prostate) of the same molecule?
A: > 100 µM

Q: What about the TGI (HCT-15 colon) of the same molecule?
A: > 100 µM

Q: And the TGI (MDA-MB-231 breast)?
A: > 100 µM

Q: And the TGI (IGROV1 ovarian)?
A: > 100 µM

Q: What about the TGI (T-47D breast) of the same molecule?
A: > 100 µM

Q: And the TGI (MALME-3M melanoma)?
A: 93.5 µM

Q: What about the TGI (NCI-H460 lung) of the same molecule?
A: > 100 µM

Q: What about the TGI (NCI-H23 lung) of the same molecule?
A: > 100 µM

Q: What about the TGI (SK-MEL-2 melanoma) of the same molecule?
A: > 100 µM

Q: And the TGI (SK-OV-3 ovarian)?
A: > 100 µM

Q: What about the TGI (HOP-92 NSCLC) of the same molecule?
A: > 100 µM

Q: What about the TGI (U251 CNS) of the same molecule?
A: > 100 µM

Q: What about the TGI (OVCAR-8 ovarian) of the same molecule?
A: > 100 µM

Q: What about the TGI (SNB-75 CNS) of the same molecule?
A: > 100 µM

Q: What about the TGI (HT29 colon) of the same molecule?
A: > 100 µM

Q: And the TGI (MCF7 breast)?
A: > 100 µM

Q: And the TGI (SK-MEL-28 melanoma)?
A: > 100 µM

Q: What about the TGI (OVCAR-3 ovarian) of the same molecule?
A: > 100 µM

Q: And the TGI (MDA-N)?
A: > 100 µM

Q: And the TGI (KM12 colon)?
A: > 100 µM

Q: What about the TGI (PC-3 prostate) of the same molecule?
A: > 100 µM

Q: What about the TGI (LOX IMVI melanoma) of the same molecule?
A: > 100 µM

Q: And the TGI (A498 renal)?
A: > 100 µM

Q: What about the TGI (UACC-62 melanoma) of the same molecule?
A: > 100 µM

Q: And the TGI (NCI-H522 lung)?
A: 92.6 µM

Q: What about the TGI (SN12C renal) of the same molecule?
A: > 100 µM

Q: What about the TGI (A549 NSCLC) of the same molecule?
A: > 100 µM

Q: And the TGI (RXF 393 renal)?
A: > 100 µM

Q: And the TGI (RPMI-8226 leukemia)?
A: > 100 µM

Q: What about the TGI (CCRF-CEM leukemia) of the same molecule?
A: > 100 µM

Q: And the TGI (MDA-MB-435)?
A: > 100 µM

Q: And the TGI (HCT-116 colon)?
A: > 100 µM

Q: What about the TGI (HOP-62 NSCLC) of the same molecule?
A: > 100 µM

Q: And the TGI (SR leukemia)?
A: > 100 µM

Q: And the TGI (OVCAR-5 ovarian)?
A: > 100 µM

Q: And the TGI (SF-295 CNS)?
A: > 100 µM

Q: What about the TGI (UO-31 renal) of the same molecule?
A: > 100 µM

Q: What about the TGI (786-0 renal) of the same molecule?
A: > 100 µM

Q: And the TGI (UACC-257 melanoma)?
A: > 100 µM

Q: What about the TGI (EKVX NSCLC) of the same molecule?
A: > 100 µM

Q: What about the TGI (BT-549 breast) of the same molecule?
A: > 100 µM

Q: And the TGI (HS 578T breast)?
A: > 100 µM

Q: And the TGI (HL-60(TB) leukemia)?
A: 82.3 µM
